Source: patent US12427200B2 (priority 2019, dated 2025)
Several values for one entry are separate records, joined by “and”; a condition that tells them apart may be missing. Equal entries are not always repeated. Where two headings read alike, the source gives them in different places.

Tests used:
[1] = system: H3N2 WT (A/Washington/12/2007); format: cell-based, Influenza A virus
[2] = system: A/Hong Kong/156/1997 (H5N1, clade 0); format: cell-based, Influenza A virus
[3] = system: B (B/Malaysia/2506/2004); format: cell-based, Influenza B virus
[4] = system: A/Anhui/01/2013 (H7N9); format: cell-based, Influenza A virus
[5] = system: lung cytokines; set-up: species or system BALB/c mice; conditions: mouse, in vivo, po, 5 mg/kg
[6] = system: influenza A/CA/07/2009; set-up: species or system BALB/c mice; conditions: mouse, in vivo, po, 5 mg/kg
[7] = system: influenza A/Ca/07/2009 (H1N1)pdm; format: cell-based, Influenza A virus
[8] = system: influenza A/Puerto Rico/8/1934 (H1N1); set-up: species or system BALB/c mice; conditions: mouse, in vivo
[9] = system: influenza B; format: cell-based, Influenza B virus
[10] = system: influenza A H1N1 strains; set-up: species or system Influenza A virus; conditions: read-out: cell-based cytopathic effect assay (median EC50)
[11] = system: A/Puerto Rico/8/1934 (H1N1); set-up: species or system BALB/c mice; conditions: mouse, in vivo
[12] = system: B/Brisbane/60/2008; set-up: species or system BALB/c mice; conditions: mouse, in vivo
[13] = system: neuraminidase of live influenza A (H3N2) viruses; assay: biochemical; set-up: species or system Influenza A virus; conditions: read-out: neuraminidase inhibition (median IC50)
[14] = system: INFV B (B/Brisbane); assay: microbe, parasite or virus in culture; format: cell-based, Influenza B virus; conditions: read-out: EC50 vs INFV B
[15] = system: A/turkey/Turkey/1/2005 (H5N1, clade 2.2); format: cell-based, Influenza A virus
[16] = system: A/Indonesia/5/2005 (H5N1, clade 2.1); format: cell-based, Influenza A virus
[17] = system: INF-γ, TNF-α, IL-6, MIP-1α, MCP-1 in lung homogenate; set-up: species or system BALB/c mice; conditions: mouse, in vivo
[18] = system: influenza A/CA/07/2009 (H1N1) pdm; format: cell-based, Influenza A virus
[19] = system: A/Puerto Rico/8/1934 (H1N1); conditions: mouse, in vivo
[20] = system: neuraminidase of influenza B viruses; format: biochemical; conditions: read-out: neuraminidase inhibition (median IC50)
[21] = system: A/Vietnam/1203/2004 (H5N1); set-up: species or system BALB/c mice; conditions: mouse, in vivo
[22] = system: influenza A/PR/8/1934; set-up: species or system BALB/c mice; conditions: mouse, in vivo; for Log reduction PFU/g / Viral burden PFU/g: po
[23] = system: A/CA/12/12 (H1N1); set-up: species or system BALB/c mice; conditions: mouse, in vivo
[24] = system: A/Texas/36/91 (H1N1); set-up: species or system BALB/c mice; conditions: mouse, in vivo
[25] = system: lung cytokines; set-up: species or system BALB/c mice; conditions: mouse, in vivo, po
[26] = system: INFV A (A/CA/09 H1N1); assay: microbe, parasite or virus in culture; format: cell-based, Influenza A virus; conditions: read-out: EC50 vs INFV A
[27] = system: H1N1 WT (A/California/12/2012); format: cell-based, Influenza A virus
[28] = system: neuraminidase of live influenza A (H1N1) viruses; assay: biochemical; format: biochemical, Influenza A virus; conditions: read-out: neuraminidase inhibition (median IC50)
[29] = system: H3N2 A/Hong Kong/1/68; format: in vivo, mouse; conditions: 15 days
[30] = system: influenza B strains; set-up: species or system Influenza B virus; conditions: read-out: cell-based cytopathic effect assay (median EC50)
[31] = system: influenza A/WSN/1933; format: cell-based, Influenza A virus
[32] = system: H7N9 isolate (high path influenza A); format: cell-based, Influenza A virus
[33] = system: A/Texas/36/91 (H1N1); conditions: mouse, in vivo
[34] = system: A/Puerto Rico/08/1934 (H1N1), PR8; format: in vivo, mouse; conditions: 10 days
[35] = system: H5N1 isolates (high path influenza A); format: cell-based, Influenza A virus
[36] = system: A/Netherlands/602/2009 (H1N1); format: cell-based, Influenza A virus
[37] = system: A/PR/8/34 (H1N1); set-up: species or system BALB/c mice; conditions: mouse, in vivo
[38] = system: influenza A H3N2 strains; set-up: species or system Influenza A virus; conditions: read-out: cell-based cytopathic effect assay (median EC50)
[39] = read-out: IC50 for viral replication
[40] = read-out: microneutralization (IC50)

What does the source list for `CCOC(=O)C1=C[C@@H](OC(CC)CC)[C@H](NC(C)=O)[C@@H](N)C1` [Oseltamivir, oseltamivir]?
EC50 [1]: 29.6 nM; EC100 (CPE in MDCK cells) [2]: >1000 nM; EC50 [3]: 22.1 nM; EC100 (CPE in MDCK cells) [4]: ~500 to 1000 nM; IL-6 [5]: 714.2 pg/mL; Log reduction PFU/g [6]: −0.08; Viral burden PFU/g [6]: 2.05E+07 PFU/g; EC50 ([7]; read-out: EC50, MOI 0.1): > 10000 nM; EC50 ([7]; read-out: EC50, MOI 1): > 10000 nM; Log reduction (PFU/mL) [8]: 0.24 Log and 0.52 Log; EC50 ([9]; read-out: CPE against influenza B, EC50, B/Brisbane): 969 nM; EC50 ([9]; read-out: CPE against influenza B, EC50, B/Florida): > 10000 nM; EC50 ([9]; read-out: CPE against influenza B, EC50, B/Malaysia): 5690 nM; EC50 [10]: 2410 nM; Survival [11]: 0%; Survival ([11]; 200 mg/kg): 40%; Survival [12]: 40%; IC50 [13]: […]; EC50 [14]: 1060 nM; EC100 (CPE in MDCK cells) [15]: ~125 to 250 nM; EC100 (CPE in MDCK cells) [16]: ~200 to 500 nM; IL-6 lung cytokine level [17]: 1.8 and 1.4; INF-γ lung cytokine level [17]: 1.0 and 0.8; MCP-1 lung cytokine level [17]: 24.0 and 16.2; MIP-1a lung cytokine level [17]: 6.3 and 4.0; TNF-α lung cytokine level [17]: 0.8; EC50 [18]: 18.5 nM and 34.2 nM; day by which mice reached mortality [19]: ≤ 8 days; loss of body weight [19]: 14%; protection (survival) [19]: fully protected; IC50 [20]: […]; Protection [21]: 90%; Viral load reduction [22]: ca. 0.8 log; Log reduction PFU/g ([22]; 5 mg/kg): 0.83; Viral burden PFU/g ([22]; 5 mg/kg): 2.86E+06 PFU/g; Log reduction PFU/g ([22]; 50 mg/kg): 0.86; Viral burden PFU/g ([22]; 50 mg/kg): 2.66E+06 PFU/g; Protection from lethal challenge [23]: unprotective; Survival [23]: 40%; Protection [24]: no protection; Survival [24]: 40%; Survival ([24]; 200 mg/kg): 80%; IL-6 ([25]; 5 mg/kg): 714.2 pg/mL; MCP-1 ([25]; 5 mg/kg): 5301.6 pg/mL; KC ([25]; 50 mg/kg): 2705.5 pg/mL; MCP-1 ([25]; 50 mg/kg): 4572.8 pg/mL; MIP-1α ([25]; 50 mg/kg): 948.2 pg/mL; TNF-α ([25]; 50 mg/kg): 501.7 pg/mL; EC50 [26]: 390 nM; EC50 [27]: > 100 nM; IC50 [28]: […]; % Survival [29]: 80%; EC50 [30]: 758 nM; EC50 ([31]; read-out: EC50, MOI 0.001): 3910 nM; EC50 ([31]; read-out: EC50, MOI 0.01): > 10000 nM; EC50 ([31]; read-out: EC50, MOI 0.1): > 10000 nM; EC50 ([31]; read-out: EC50, MOI 1): > 10000 nM; EC50 ([31]; read-out: EC50, MOI 10): > 10000 nM; IC50 [32, 39]: ≥ 300 nM; IC50 [32, 40]: > 300 nM; % Survival (Day 14) [33]: 100%; % Survival [34]: 20%; IC50 [35, 39]: ≥ 300 nM and 169 nM; IC50 [35, 40]: 169 nM and > 300 nM; EC100 (CPE in MDCK cells) [36]: ~1000 nM; IC50 [36, 39]: ≥ 300 nM; IC50 [36, 40]: > 300 nM; Day until which death was delayed [37]: 10 days; Survival [37]: 0%; Survival / protection [37]: 80%; EC50 [38]: 8180 nM
